In patent US20080242649A1, “New Combination 665” (priority 2007, published 2008):
Structures can show the parent of a compound that is named as a salt.

Legend:
[1] = target: T1, recombinant human Dopamine Subtype D2s receptors (Homo sapiens, UniProt P14416); assay: Dopamine D2 [3H]-spiperone binding; conditions: inhibition of [3H]-spiperone binding; read-out: D2 bind pIC50 (converted)
T1 construct: purchased Perkin Elmer
Experimental: Membranes containing recombinant human Dopamine Subtype D2s receptors were obtained from Perkin Elmer. These were diluted in Assay Buffer (50 mM HEPES, 1 mM EDTA, 120 mM NaCl, 0.1% gelatin, pH 7.4) to provide a final concentration of membranes that gave a clear window between maximum and minimum specific binding.
Assays were performed in U-bottomed 96-well polypropylene plates. 30 PL [^3H]-spiperone (0.16 nM final concentration) and 30 μL of Compound A (10× final concentration) were added to each test well. For each assay plate 8 replicates were obtained for [^3H]-spiperone binding in the presence of 30 PL vehicle (10% (v/v) DMSO in Assay Buffer; defining maximum binding) or 30 μL Haloperidol (10 PM final concentration; defining non-specific binding (NSB)). Membranes were then added to achieve a final volume of 300 μL. […] Five washes with 250 μL wash buffer (50 mM HEPES, 1 mM EDTA, 120 mM NaCl, pH 7.4) were performed at 4° C. to remove unbound radioactivity. […] The plates were sealed (TopSeal A) and filter-bound radioactivity was measured with a scintillation counter (TopCount, Packard BioScience) using a 3-minute counting protocol.
Total specific binding (B0) was determined by subtracting the mean NSB from the mean maximum binding. […]

[2] = test system: histamine-induced bronchoconstriction; assay: Lung function in anaesthetized guinea-pigs, histamine challenge; format: in vivo, Dunkin-Hartley guinea pig; conditions: for inhibition of histamine-induced bronchoconstriction: histamine 5 μg/kg i.v.; for increase in bronchoconstriction: histamine 5 μg/kg, vehicle 1100±161%
Experimental: (§1) Evaluation of Lung Function in Anaesthetized Guinea-Pigs
(§2) Male Dunkin-Hartley guinea pigs (300-600 g) were weighed and dosed with vehicle (0.05M phosphate, 0.1% Tween 80, 0.6% saline, pH 6) or compound via the intratracheal route under recoverable gaseous anaesthesia (5% halothane in oxygen). Animals were dosed with compound or vehicle two hours prior to the administration of histamine or methacholine.
(§3) Guinea pigs were anaesthetized with pentobarbitone (1 mL/kg of 60 mg/mL solution i.p.) approximately 30 minutes prior to the first bronchoconstrictor administration. The trachea was cannulated and the animal ventilated using a constant volume respiratory pump (Harvard Rodent Ventilator model 683) at a rate of 60 breath/min and a tidal volume of 5 ml/kg. A jugular vein was cannulated for the administration of histamine, methacholine or maintenance anaesthetic (0.1 mL of pentobarbitone solution, 60 mg/mL, as required).
(§4) The animals were transferred to a Flexivent System (SCIREQ, Montreal, Canada) in order to measure airway resistance. The animals were ventilated (quasi-sinusoidal ventilation pattern) at 60 breaths/min at a tidal volume of 5 mL/kg. A positive end expiratory pressure of 2-3 cmH2O was applied. Respiratory resistance was measured using the Flexivent “snapshot” facility (1 second duration, 1 Hz frequency). Once stable baseline resistance value had been obtained the animals were given histamine or methacholine in ascending doses (0.5, 1, 2, 3 and 5 μg/kg, i.v.) at approximately 4-minute intervals via the jugular catheter. After each administration of bronchoconstrictor the peak resistance value was recorded. Guinea pigs were euthanized with approximately 1.0 mL pentobarbitone sodium (Euthatal) intravenously after the completion of the lung function measurements. Percentage bronchoprotection produced by a compound was calculated at each dose of brochoconstrictor as follows:
(§5) Where % change Rveh is the mean of the maximum percentage change in airway resistance in the vehicle treated group. The results reported were measured after 5 μg/kg histamine or methacholine and were expressed as percentage bronchoprotection (mean ±s.e.mean).

[3] = test system: methacholine-induced bronchoconstriction; assay: Lung function in anaesthetized guinea-pigs, methacholine challenge; format: in vivo, Dunkin-Hartley guinea pig; conditions: for inhibition of methacholine-induced bronchoconstriction: methacholine 5 μg/kg i.v.; for increase in resistance: methacholine 5 μg/kg, vehicle 1898±211%
Experimental: as §1, §2, §3, §4, §5

guinea pig trachea = assay: Bronchodilator onset in guinea pig isolated tracheal ring contracted with methacholine
Experimental: Evaluation of Bronchodilator Activity in the Guinea Pig Isolated Tracheal Ring Preparation
Guinea pigs (300-500 g) were killed by cervical dislocation and the trachea was isolated. The trachea was cut into segments 2-3 cartilage rings in width and suspended in 10 ml organ baths in modified Krebs' solution (mM; NaCl, 90; NaHCO3, 45; KCl, 5; MgSO4.7H2O, 0.5; Na2HPO4.2H2O, 1; CaCl2, 2.25; glucose, 10; pH 7.4) gassed with 5% CO2, 95% […] at 37° C.). The tracheal rings were attached to an isometric force transducer for the measurement of isometric tension. The tissues were washed and a force of 1 g was applied to each tissue. The rings were contracted with methacholine (1 μM). Once the contraction had reached a plateau, vehicle (0.01% DMSO in distilled H2O), compound A (3 nM), roflumilast (1 μM) or a combination of compound A (3 nM) and roflumilast (1 μM) was added and the tissue left until the response had reached a plateau. Data were collected using the Chart 4 software (ADInstruments, Charlgrove, UK). The time to 90% of the maximum effect of the bronchodilator (onset time) was measured and expressed in min (mean ±s.e.mean).

[4] = compound A 1 μg/kg intratracheal 2 h before
[5] = compound A 1 μg/kg intratracheal
[6] = compound A 27 μg/kg intratracheal 2 h before
[7] = compound A 27 μg/kg intratracheal

T1 sequence (P14416 1-414 isoform P14416-2): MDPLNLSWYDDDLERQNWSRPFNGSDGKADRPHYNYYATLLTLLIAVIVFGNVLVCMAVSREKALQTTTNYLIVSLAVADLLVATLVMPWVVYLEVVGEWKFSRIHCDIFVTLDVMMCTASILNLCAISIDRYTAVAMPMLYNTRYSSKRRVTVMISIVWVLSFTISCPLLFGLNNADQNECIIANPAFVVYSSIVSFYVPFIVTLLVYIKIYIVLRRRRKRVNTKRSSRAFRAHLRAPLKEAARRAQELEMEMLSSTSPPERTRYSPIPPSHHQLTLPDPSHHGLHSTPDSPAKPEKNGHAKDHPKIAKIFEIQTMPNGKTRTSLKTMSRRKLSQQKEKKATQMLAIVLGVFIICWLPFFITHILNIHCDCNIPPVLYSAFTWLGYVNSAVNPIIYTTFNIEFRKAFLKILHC

CCN(CC)CCN(CCNCCc1ccc(O)c2[nH]c(=O)sc12)C(=O)CCOCCc1cccc2ccccc12 [Compound A, N-[2-(Diethylamino)ethyl]-N-(2-{[2-(4-hydroxy-2-oxo-2,3-dihydro-1,3-benzothiazol-7-yl)ethyl]amino}ethyl)-3-[2-(1-naphthyl)ethoxy]propanamide dihydrobromide]
IC50 [1]: 794 nM
inhibition of histamine-induced bronchoconstriction [2, 4]: 49%
increase in bronchoconstriction [2, 5]: 544±60%
inhibition of histamine-induced bronchoconstriction [2, 6]: 87%
increase in bronchoconstriction [2, 7]: 140±36%
inhibition of methacholine-induced bronchoconstriction [3, 4]: 15%
increase in resistance [3, 5]: 1619±235%
inhibition of methacholine-induced bronchoconstriction [3, 6]: 82%
increase in resistance [3, 7]: 347±71%
onset time (time to 90% of the maximum effect) (guinea pig trachea; Compound A 3 nM in the presence of roflumilast 1 μM): 5.7 ± 1.0 min
onset time (time to 90% of the maximum effect) (guinea pig trachea; compound A 3 nM alone, methacholine 1 μM contraction, mean ±s.e.mean): 16 ± 3.0 min
